Assay results published in the supplement of paper PMC10307832.

Key:
Experiment in all cases: relative viability (nuclei count vs DMSO), 5 days (fraction); higher = more cells survive
LOU-NH91 = test system: LOU-NH91
Outline: (§1)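 Medians of duplicate plates are given as relative viability. That measure is the nuclei count in treated wells divided by the count in vehicle wells. Counts were taken on 4× images of lung cancer cell lines in 1536-well plates, 5 days after pin-tool dosing the day after seeding with one drug alone or a fixed anchor-drug dose plus five library-drug doses (not always all listed) in √10 steps.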

NCI-H1650 = test system: NCI-H1650
Outline: as §1

NCI-H2228 = test system: NCI-H2228
Outline: as §1

LC-2-ad = test system: LC-2-ad
Outline: as §1

HARA = test system: HARA
Outline: as §1

LU99A = test system: LU99A
Outline: as §1

BEN = test system: BEN
Outline: as §1

SK-LU-1 = test system: SK-LU-1
Outline: as §1

NCI-H520 = test system: NCI-H520
Outline: as §1

NCI-H1793 = test system: NCI-H1793
Outline: as §1

NCI-H1944 = test system: NCI-H1944
Outline: as §1

LCLC-103H = test system: LCLC-103H
Outline: as §1

NCI-H3122 = test system: NCI-H3122
Outline: as §1

COR-L23 = test system: COR-L23
Outline: as §1

A-427 = test system: A-427
Outline: as §1

NCI-H322M = test system: NCI-H322M
Outline: as §1

NCI-H1666 = test system: NCI-H1666
Outline: as §1

NCI-H1915 = test system: NCI-H1915
Outline: as §1

PC-14 = test system: PC-14
Outline: as §1

NCI-H2170 = test system: NCI-H2170
Outline: as §1

NCI-H2087 = test system: NCI-H2087
Outline: as §1

NCI-H727 = test system: NCI-H727
Outline: as §1

EKVX = test system: EKVX
Outline: as §1

PC-3 [JPC-3] = test system: PC-3 [JPC-3]
Outline: as §1

`C=C1C(=O)O[C@@H](CCCCCCCC)[C@@H]1C(=O)O` [C-75] + CC(=O)c1c(C)c2cnc(Nc3ccc(N4CCNCC4)cn3)nc2n(C2CCCC2)c1=O [Palbociclib] (partner 0.5 µM) showed a relative viability (LOU-NH91; first compound 0.08 µM) of 0.534, a relative viability (LOU-NH91; first compound 0.253 µM) of 0.536 and a relative viability (LOU-NH91; first compound 0.8 µM) of 0.504. The relative viability (LOU-NH91; first compound 8 µM) was 0.464, the relative viability (NCI-H1650; first compound 0.08 µM) was 0.431 and the relative viability (NCI-H1650; first compound 0.253 µM) was 0.414. The relative viability (NCI-H1650; first compound 0.8 µM) was 0.342, the relative viability (NCI-H1650; first compound 8 µM) was 0.38 and the relative viability (NCI-H2228; first compound 0.08 µM) was 0.743. The relative viability (NCI-H2228; first compound 0.253 µM) was 0.988, the relative viability (NCI-H2228; first compound 0.8 µM) was 0.589 and the relative viability (NCI-H2228; first compound 2.53 µM) was 0.7. For the same compound, the relative viability (NCI-H2228; first compound 8 µM) was 0.681, the relative viability (LC-2-ad; first compound 0.08 µM) was 0.555 and the relative viability (LC-2-ad; first compound 0.253 µM) was 0.474. It also gave a relative viability (LC-2-ad; first compound 0.8 µM) of 0.471, a relative viability (LC-2-ad; first compound 2.53 µM) of 0.381 and a relative viability (LC-2-ad; first compound 8 µM) of 0.482. For the same compound, the relative viability (HARA; first compound 0.08 µM) was 0.254, the relative viability (HARA; first compound 0.253 µM) was 0.222 and the relative viability (HARA; first compound 0.8 µM) was 0.273. It also gave a relative viability (HARA; first compound 2.53 µM) of 0.222, a relative viability (HARA; first compound 8 µM) of 0.28 and a relative viability (LU99A; first compound 0.08 µM) of 0.383. It also gave a relative viability (LU99A; first compound 0.253 µM) of 0.354, a relative viability (LU99A; first compound 0.8 µM) of 0.481 and a relative viability (LU99A; first compound 2.53 µM) of 0.408. For the same compound, the relative viability (LU99A; first compound 8 µM) was 0.398, the relative viability (BEN; first compound 0.08 µM) was 0.509 and the relative viability (BEN; first compound 0.253 µM) was 0.483. For the same compound, the relative viability (BEN; first compound 0.8 µM) was 0.46, the relative viability (BEN; first compound 2.53 µM) was 0.375 and the relative viability (BEN; first compound 8 µM) was 0.452. For the same compound, the relative viability (SK-LU-1; first compound 0.08 µM) was 0.384, the relative viability (SK-LU-1; first compound 0.253 µM) was 0.43 and the relative viability (SK-LU-1; first compound 0.8 µM) was 0.429. It also gave a relative viability (SK-LU-1; first compound 2.53 µM) of 0.387, a relative viability (SK-LU-1; first compound 8 µM) of 0.384 and a relative viability (NCI-H520; first compound 0.08 µM) of 0.186. It also gave a relative viability (NCI-H520; first compound 0.253 µM) of 0.238, a relative viability (NCI-H520; first compound 0.8 µM) of 0.225 and a relative viability (NCI-H520; first compound 2.53 µM) of 0.225. The relative viability (NCI-H520; first compound 8 µM) was 0.211, the relative viability (NCI-H1793; first compound 0.08 µM) was 0.278 and the relative viability (NCI-H1793; first compound 0.253 µM) was 0.311. For the same compound, the relative viability (NCI-H1793; first compound 2.53 µM) was 0.267, the relative viability (NCI-H1793; first compound 8 µM) was 0.306 and the relative viability (NCI-H1944; first compound 0.08 µM) was 0.34. The relative viability (NCI-H1944; first compound 0.253 µM) was 0.296, the relative viability (NCI-H1944; first compound 0.8 µM) was 0.279 and the relative viability (NCI-H1944; first compound 2.53 µM) was 0.305. It also gave a relative viability (NCI-H1944; first compound 8 µM) of 0.305, a relative viability (LCLC-103H; first compound 0.08 µM) of 0.447 and a relative viability (LCLC-103H; first compound 0.253 µM) of 0.428. The relative viability (LCLC-103H; first compound 0.8 µM) was 0.499, the relative viability (LCLC-103H; first compound 2.53 µM) was 0.353 and the relative viability (LCLC-103H; first compound 8 µM) was 0.451. For the same compound, the relative viability (NCI-H3122; first compound 0.08 µM) was 0.18, the relative viability (NCI-H3122; first compound 0.253 µM) was 0.193 and the relative viability (NCI-H3122; first compound 0.8 µM) was 0.153. The relative viability (NCI-H3122; first compound 2.53 µM) was 0.18, the relative viability (NCI-H3122; first compound 8 µM) was 0.213 and the relative viability (COR-L23; first compound 0.08 µM) was 0.353. It also gave a relative viability (COR-L23; first compound 0.253 µM) of 0.305, a relative viability (COR-L23; first compound 0.8 µM) of 0.255 and a relative viability (COR-L23; first compound 2.53 µM) of 0.24. The relative viability (COR-L23; first compound 8 µM) was 0.28, the relative viability (A-427; first compound 0.08 µM) was 0.531 and the relative viability (A-427; first compound 0.253 µM) was 0.468. It also gave a relative viability (A-427; first compound 0.8 µM) of 0.49, a relative viability (A-427; first compound 2.53 µM) of 0.464 and a relative viability (A-427; first compound 8 µM) of 0.523. For the same compound, the relative viability (NCI-H322M; first compound 0.08 µM) was 0.481, the relative viability (NCI-H322M; first compound 0.253 µM) was 0.525 and the relative viability (NCI-H322M; first compound 0.8 µM) was 0.479. It also gave a relative viability (NCI-H322M; first compound 8 µM) of 0.481, a relative viability (NCI-H1666; first compound 0.08 µM) of 0.626 and a relative viability (NCI-H1666; first compound 0.253 µM) of 0.638. The relative viability (NCI-H1666; first compound 0.8 µM) was 0.662, the relative viability (NCI-H1666; first compound 8 µM) was 0.594 and the relative viability (NCI-H1915; first compound 0.08 µM) was 0.515. The relative viability (NCI-H1915; first compound 0.253 µM) was 0.556, the relative viability (NCI-H1915; first compound 0.8 µM) was 0.546 and the relative viability (NCI-H1915; first compound 2.53 µM) was 0.472. It also gave a relative viability (NCI-H1915; first compound 8 µM) of 0.5, a relative viability (PC-14; first compound 0.08 µM) of 0.54 and a relative viability (PC-14; first compound 0.253 µM) of 0.546. For the same compound, the relative viability (PC-14; first compound 0.8 µM) was 0.504, the relative viability (PC-14; first compound 2.53 µM) was 0.453 and the relative viability (PC-14; first compound 8 µM) was 0.445. The relative viability (NCI-H2170; first compound 0.08 µM) was 0.388, the relative viability (NCI-H2170; first compound 0.253 µM) was 0.406 and the relative viability (NCI-H2170; first compound 0.8 µM) was 0.377. It also gave a relative viability (NCI-H2170; first compound 2.53 µM) of 0.319, a relative viability (NCI-H2170; first compound 8 µM) of 0.424 and a relative viability (NCI-H2087; first compound 0.08 µM) of 0.239. It also gave a relative viability (NCI-H2087; first compound 0.253 µM) of 0.232, a relative viability (NCI-H2087; first compound 0.8 µM) of 0.239 and a relative viability (NCI-H2087; first compound 2.53 µM) of 0.209. The relative viability (NCI-H2087; first compound 8 µM) was 0.217, the relative viability (NCI-H727; first compound 0.08 µM) was 0.755 and the relative viability (NCI-H727; first compound 0.253 µM) was 0.667. It also gave a relative viability (NCI-H727; first compound 0.8 µM) of 0.544, a relative viability (NCI-H727; first compound 2.53 µM) of 0.614 and a relative viability (NCI-H727; first compound 8 µM) of 0.624. The relative viability (EKVX; first compound 0.08 µM) was 0.4, the relative viability (EKVX; first compound 0.253 µM) was 0.307 and the relative viability (EKVX; first compound 0.8 µM) was 0.383. The relative viability (EKVX; first compound 8 µM) was 0.425, the relative viability (PC-3 [JPC-3]; first compound 0.08 µM) was 0.54 and the relative viability (PC-3 [JPC-3]; first compound 0.253 µM) was 0.509. The relative viability (PC-3 [JPC-3]; first compound 0.8 µM) was 0.515, the relative viability (PC-3 [JPC-3]; first compound 2.53 µM) was 0.502 and the relative viability (PC-3 [JPC-3]; first compound 8 µM) was 0.568.
